Laboratory results reported in ChEMBL document CHEMBL4840352 (J Med Chem, 2021).
Active and inactive are the calls of the source. The calls are words filed in the database; no cut-off is given here.

What was measured:
[1] = molecular target: Mitogen-activated protein kinase 1 (Homo sapiens) (UniProt P28482); test: Inhibition of MAPK2 (unknown origin) at 1000 nM relative to control
[2] = molecular target: Casein kinase I isoform alpha-like (Homo sapiens) (UniProt Q8N752); test: Inhibition of CK1A1 (unknown origin) at 1000 nM relative to control
[3] = molecular target: Hepatocyte growth factor receptor (Homo sapiens) (UniProt P08581); test: Inhibition of C-MET (unknown origin) at 1000 nM relative to control
[4] = molecular target: Mast/stem cell growth factor receptor Kit (Homo sapiens) (UniProt P10721); test: Induction of KIT degradation in human MOLM-13 cells at 0 to 25 nM after 24 hrs by Western blot analysis; assay type: cell-based; settings: dose 0-25 nM
[5] = system: Receptor-type tyrosine-protein kinase FLT3 (Homo sapiens), P36888 [UNDEFINED MUTATION]; test: Induction of FLT3-ITD degradation in human MV4-11 cells at 20 nM pretreated with dov for 2 hrs followed compound addition for 6 hrs by Western blot analysis; assay type: cell-based
[6] = molecular target: Receptor-type tyrosine-protein kinase FLT3 (Homo sapiens) (UniProt P36888); test: Inhibition of FLT3 in human MV4-11 cells assessed as reduction in FLT3 phosphorylation at 15 nM by Western blot analysis; assay type: cell-based; settings: time 0-12 hrs, TDE = time-dependent effect
[7] = molecular target: Mitogen-activated protein kinase kinase kinase kinase 1 (Homo sapiens) (UniProt Q92918); test: Inhibition of HPK1 (unknown origin) at 1000 nM relative to control
MOLM-13 [8] = test: Reduction in intracellular ROS level in human MOLM-13 cells measured after 12 hrs by DCFH-DA probe based flow cytometry; assay type: functional, cell-based; settings: dose 25-200 nM
[9] = molecular target: Fibroblast growth factor receptor 1 (Homo sapiens) (UniProt P11362); settings: dose 1000.0 nM
Description: Inhibition of FGFR1 (unknown origin) at 1000 nM relative to control

[10] = system: Receptor-type tyrosine-protein kinase FLT3 (Homo sapiens), P36888 [D835Y]; settings: dose 1000.0 nM
Description: Inhibition of FLT3 D835Y mutant (unknown origin) at 1000 nM relative to control

MV4-11 [11] = test: Induction of apoptosis in human MV4-11 cells assessed as upregulation of cleaved caspase-3 level at 15 nM by Western blot analysis; assay type: functional, cell-based; settings: time 0-12 hrs, TDE = time-dependent effect
[12] = molecular target: Mitogen-activated protein kinase 1 (Homo sapiens) (UniProt P28482); test: Inhibition of ERK2 (unknown origin) at 1000 nM relative to control
[13] = molecular target: Receptor-type tyrosine-protein kinase FLT3 (Homo sapiens) (UniProt P36888); test: Inhibition of FLT3 in human MOLM-13 cells assessed as reduction in AKT phosphorylation at 15 nM by Western blot analysis; assay type: cell-based; settings: time 0-12 hrs, TDE = time-dependent effect
[14] = molecular target: Platelet-derived growth factor receptor beta (Homo sapiens) (UniProt P09619); test: Induction of PDGFR degradation in human MV4-11 cells at 0 to 25 nM after 24 hrs by Western blot analysis; assay type: cell-based; settings: dose 0-25 nM
[15] = molecular target: Mitogen-activated protein kinase 14 (Homo sapiens) (UniProt Q16539); settings: dose 1000.0 nM
Description: Inhibition of p38alpha (unknown origin) at 1000 nM relative to control

[16] = molecular target: Discoidin domain-containing receptor 2 (Homo sapiens) (UniProt Q16832); test: Inhibition of DDR2 (unknown origin) at 1000 nM relative to control
[17] = molecular target: Platelet-derived growth factor receptor beta (Homo sapiens) (UniProt P09619); test: Induction of PDGFR degradation in human MOLM-13 cells at 0 to 25 nM after 24 hrs by Western blot analysis; assay type: cell-based; settings: dose 0-25 nM
[18] = molecular target: Fibroblast growth factor receptor 2 (Homo sapiens) (UniProt P21802); settings: dose 1000.0 nM
Description: Inhibition of FGFR2 (unknown origin) at 1000 nM relative to control

[19] = molecular target: Mitogen-activated protein kinase 8 (Homo sapiens) (UniProt P45983); test: Inhibition of JNK1 (unknown origin) at 1000 nM relative to control
[20] = molecular target: Tyrosine-protein kinase JAK3 (Homo sapiens) (UniProt P52333); test: Inhibition of JAK3 (unknown origin) at 1000 nM relative to control
[21] = system: Receptor-type tyrosine-protein kinase FLT3 (Homo sapiens), P36888 [UNDEFINED MUTATION]; test: Induction of FLT3-ITD degradation in human MOLM-13 cells after 24 hrs by Western blot analysis; assay type: cell-based
[22] = molecular target: Rho-associated protein kinase 1 (Homo sapiens) (UniProt Q13464); test: Inhibition of ROCK1 (unknown origin) at 1000 nM relative to control
[23] = molecular target: Serine/threonine-protein kinase Chk1 (Homo sapiens) (UniProt O14757); test: Inhibition of CHK1 (unknown origin) at 1000 nM relative to control
[24] = system: Receptor-type tyrosine-protein kinase FLT3 (Homo sapiens), P36888 [UNDEFINED MUTATION]; settings: dose 1000.0 nM
Description: Inhibition of FLT3 ITD mutant (unknown origin) at 1000 nM relative to control

[25] = molecular target: Tyrosine-protein kinase ABL1 (Homo sapiens) (UniProt P00519); settings: dose 1000.0 nM
Description: Inhibition of ABL (unknown origin) at 1000 nM relative to control

[26] = system: Receptor-type tyrosine-protein kinase FLT3 (Homo sapiens), P36888 [UNDEFINED MUTATION]; test: Induction of FLT3-ITD degradation in human MV4-11 cells at 20 nM pretreated with pomalidomide for 2 hrs followed compound addition for 6 hrs by Western blot analysis; assay type: cell-based
MV4-11 [27] = test: Induction of apoptosis in human MV4-11 cells assessed as downregulation of Bcl-2 level at 15 nM measured upto 12 hrs by Western blot analysis; assay type: functional, cell-based; settings: time hrs <=12
[28] = molecular target: Serine/threonine-protein kinase Chk2 (Homo sapiens) (UniProt O96017); test: Inhibition of CHK2 (unknown origin) at 1000 nM relative to control
MOLM-13 [29] = test: Induction of apoptosis in human MOLM-13 cells assessed as downregulation of Bcl-2 level at 15 nM measured upto 12 hrs by Western blot analysis; assay type: functional, cell-based; settings: time hrs <=12
[30] = molecular target: Mast/stem cell growth factor receptor Kit (Homo sapiens) (UniProt P10721); test: Inhibition of KIT (unknown origin) at 1000 nM relative to control
[31] = molecular target: Receptor tyrosine-protein kinase erbB-2 (Homo sapiens) (UniProt P04626); test: Inhibition of HER2 (unknown origin) at 1000 nM relative to control
[32] = molecular target: Mitogen-activated protein kinase 3 (Homo sapiens) (UniProt P27361); test: Inhibition of ERK1 (unknown origin) at 1000 nM relative to control
MV4-11 [33] = test: Antitumor activity against human MV4-11 cells xenografted in NOD/SCID mouse assessed as reduction in CD45-positive cells in bone marrow at 3 mg/kg/day, iv administered for 12 days by flow cytometry analysis (reference value: 32.23 %); assay type: functional; parameters: scale not given: the % may be the effect or the level left; settings: time 12 day
[34] = system: Receptor-type tyrosine-protein kinase FLT3 (Homo sapiens), P36888 [UNDEFINED MUTATION]; test: Induction of FLT3-ITD degradation in human MV4-11 cells after 24 hrs by Western blot analysis; assay type: cell-based
[35] = molecular target: Mitogen-activated protein kinase kinase kinase 14 (Homo sapiens) (UniProt Q99558); test: Inhibition of NIK (unknown origin) at 1000 nM relative to control
[36] = molecular target: Mast/stem cell growth factor receptor Kit (Homo sapiens) (UniProt P10721); test: Inhibition of KIT in human MV4-11 cells assessed as reduction in PI3K phosphorylation at 5 to 25 nM after 24 hrs by Western blot analysis; assay type: cell-based; settings: dose 5-25 nM
[37] = molecular target: Receptor-type tyrosine-protein kinase FLT3 (Homo sapiens) (UniProt P36888); settings: dose 1000.0 nM
Description: Inhibition of FLT3 (unknown origin) at 1000 nM relative to control

Chain of Mast/stem cell growth factor receptor Kit (Homo sapiens) (P10721 whole entry): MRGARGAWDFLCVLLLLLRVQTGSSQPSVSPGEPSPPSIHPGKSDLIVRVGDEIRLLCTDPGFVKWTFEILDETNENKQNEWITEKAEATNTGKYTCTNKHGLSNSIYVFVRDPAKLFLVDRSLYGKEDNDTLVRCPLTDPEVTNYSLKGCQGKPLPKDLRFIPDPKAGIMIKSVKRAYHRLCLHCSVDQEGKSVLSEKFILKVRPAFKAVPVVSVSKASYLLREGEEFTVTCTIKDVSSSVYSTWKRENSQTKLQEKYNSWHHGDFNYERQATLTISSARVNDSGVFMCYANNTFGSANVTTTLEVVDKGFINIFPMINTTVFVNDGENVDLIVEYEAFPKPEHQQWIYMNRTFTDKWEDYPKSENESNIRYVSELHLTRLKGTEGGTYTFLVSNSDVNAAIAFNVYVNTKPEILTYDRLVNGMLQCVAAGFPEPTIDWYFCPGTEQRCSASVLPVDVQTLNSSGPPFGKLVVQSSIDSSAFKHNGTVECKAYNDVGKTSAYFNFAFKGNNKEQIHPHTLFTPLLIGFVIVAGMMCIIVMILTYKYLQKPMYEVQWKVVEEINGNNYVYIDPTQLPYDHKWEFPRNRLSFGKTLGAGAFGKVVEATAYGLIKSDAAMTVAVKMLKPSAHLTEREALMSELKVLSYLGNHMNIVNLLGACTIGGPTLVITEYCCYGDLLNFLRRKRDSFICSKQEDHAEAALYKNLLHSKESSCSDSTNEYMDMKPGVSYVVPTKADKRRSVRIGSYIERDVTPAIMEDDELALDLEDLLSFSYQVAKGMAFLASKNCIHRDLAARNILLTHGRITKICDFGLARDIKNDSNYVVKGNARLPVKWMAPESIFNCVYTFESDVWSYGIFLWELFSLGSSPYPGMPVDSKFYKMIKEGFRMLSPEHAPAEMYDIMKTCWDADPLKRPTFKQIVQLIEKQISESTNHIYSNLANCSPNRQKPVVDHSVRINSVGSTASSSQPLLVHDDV
Chain of Platelet-derived growth factor receptor beta (Homo sapiens) (P09619 whole entry): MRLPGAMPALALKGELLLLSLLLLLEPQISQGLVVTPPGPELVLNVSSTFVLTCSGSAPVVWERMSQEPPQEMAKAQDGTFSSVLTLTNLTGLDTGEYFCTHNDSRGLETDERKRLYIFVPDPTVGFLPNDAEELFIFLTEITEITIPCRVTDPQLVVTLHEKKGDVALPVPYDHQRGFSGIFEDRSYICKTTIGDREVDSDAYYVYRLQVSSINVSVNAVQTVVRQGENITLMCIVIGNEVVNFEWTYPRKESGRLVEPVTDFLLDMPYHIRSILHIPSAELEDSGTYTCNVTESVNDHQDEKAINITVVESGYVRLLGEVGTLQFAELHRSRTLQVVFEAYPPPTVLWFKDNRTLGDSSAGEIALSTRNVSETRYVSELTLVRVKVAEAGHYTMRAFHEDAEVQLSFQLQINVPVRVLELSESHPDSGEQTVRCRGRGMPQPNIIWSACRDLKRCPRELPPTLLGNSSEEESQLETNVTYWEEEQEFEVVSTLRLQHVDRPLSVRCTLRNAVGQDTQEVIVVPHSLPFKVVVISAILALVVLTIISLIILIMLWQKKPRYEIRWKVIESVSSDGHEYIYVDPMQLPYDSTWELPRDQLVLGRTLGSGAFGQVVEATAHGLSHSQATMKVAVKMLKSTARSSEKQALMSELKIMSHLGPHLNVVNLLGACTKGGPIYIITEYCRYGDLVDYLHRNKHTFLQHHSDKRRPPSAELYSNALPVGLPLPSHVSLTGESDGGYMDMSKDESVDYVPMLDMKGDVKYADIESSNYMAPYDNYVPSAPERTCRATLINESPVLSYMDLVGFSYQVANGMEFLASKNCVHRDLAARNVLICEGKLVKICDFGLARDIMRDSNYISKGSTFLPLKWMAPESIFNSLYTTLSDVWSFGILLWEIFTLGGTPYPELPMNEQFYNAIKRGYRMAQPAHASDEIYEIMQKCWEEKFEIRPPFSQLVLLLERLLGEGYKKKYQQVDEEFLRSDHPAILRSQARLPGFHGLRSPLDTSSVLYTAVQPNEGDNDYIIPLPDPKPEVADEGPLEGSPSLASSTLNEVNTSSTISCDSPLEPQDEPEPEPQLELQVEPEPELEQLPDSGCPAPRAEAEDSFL
Chain of Mitogen-activated protein kinase 1 (Homo sapiens) (P28482 whole entry, canonical isoform): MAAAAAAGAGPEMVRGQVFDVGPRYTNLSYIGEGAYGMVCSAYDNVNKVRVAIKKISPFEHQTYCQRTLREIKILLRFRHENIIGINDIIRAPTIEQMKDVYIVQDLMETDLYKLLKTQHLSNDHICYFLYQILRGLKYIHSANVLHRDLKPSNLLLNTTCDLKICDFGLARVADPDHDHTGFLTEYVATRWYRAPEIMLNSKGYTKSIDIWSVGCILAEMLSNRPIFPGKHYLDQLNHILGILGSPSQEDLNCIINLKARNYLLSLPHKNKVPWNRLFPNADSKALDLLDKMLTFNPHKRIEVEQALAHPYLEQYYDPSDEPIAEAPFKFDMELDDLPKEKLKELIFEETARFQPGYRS
Chain of Receptor tyrosine-protein kinase erbB-2 (Homo sapiens) (P04626 whole entry): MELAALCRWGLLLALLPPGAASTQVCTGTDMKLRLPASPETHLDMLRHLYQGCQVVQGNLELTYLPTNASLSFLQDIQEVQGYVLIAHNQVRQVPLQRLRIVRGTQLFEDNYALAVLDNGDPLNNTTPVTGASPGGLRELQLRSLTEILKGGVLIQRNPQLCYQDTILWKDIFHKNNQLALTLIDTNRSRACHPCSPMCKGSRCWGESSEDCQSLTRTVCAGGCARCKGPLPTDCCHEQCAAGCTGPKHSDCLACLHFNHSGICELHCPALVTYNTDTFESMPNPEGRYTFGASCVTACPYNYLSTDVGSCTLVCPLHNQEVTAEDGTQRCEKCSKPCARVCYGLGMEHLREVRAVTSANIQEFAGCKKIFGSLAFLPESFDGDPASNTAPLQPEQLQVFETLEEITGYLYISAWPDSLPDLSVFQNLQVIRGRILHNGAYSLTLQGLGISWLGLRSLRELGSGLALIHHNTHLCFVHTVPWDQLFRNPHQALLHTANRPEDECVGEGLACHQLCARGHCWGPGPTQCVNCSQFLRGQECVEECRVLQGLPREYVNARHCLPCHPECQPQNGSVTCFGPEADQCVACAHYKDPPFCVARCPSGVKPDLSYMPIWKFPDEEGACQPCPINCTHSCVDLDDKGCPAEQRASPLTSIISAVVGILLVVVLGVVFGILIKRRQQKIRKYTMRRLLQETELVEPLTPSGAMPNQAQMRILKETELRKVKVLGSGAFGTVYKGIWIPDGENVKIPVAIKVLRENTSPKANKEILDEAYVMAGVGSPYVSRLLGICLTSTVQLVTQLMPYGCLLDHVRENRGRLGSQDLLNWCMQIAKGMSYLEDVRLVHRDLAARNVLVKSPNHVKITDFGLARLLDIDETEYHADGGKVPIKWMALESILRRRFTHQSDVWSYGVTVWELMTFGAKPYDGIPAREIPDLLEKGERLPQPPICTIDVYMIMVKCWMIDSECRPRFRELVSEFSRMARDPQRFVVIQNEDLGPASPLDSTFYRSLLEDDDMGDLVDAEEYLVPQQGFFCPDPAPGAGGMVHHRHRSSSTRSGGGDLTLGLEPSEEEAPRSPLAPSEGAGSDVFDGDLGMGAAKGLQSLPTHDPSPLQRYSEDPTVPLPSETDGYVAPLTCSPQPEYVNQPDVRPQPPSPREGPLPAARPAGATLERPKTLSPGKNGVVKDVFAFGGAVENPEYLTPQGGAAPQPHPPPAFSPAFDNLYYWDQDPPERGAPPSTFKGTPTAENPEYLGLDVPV
Chain of Fibroblast growth factor receptor 2 (Homo sapiens) (P21802 22-821 limits assumed): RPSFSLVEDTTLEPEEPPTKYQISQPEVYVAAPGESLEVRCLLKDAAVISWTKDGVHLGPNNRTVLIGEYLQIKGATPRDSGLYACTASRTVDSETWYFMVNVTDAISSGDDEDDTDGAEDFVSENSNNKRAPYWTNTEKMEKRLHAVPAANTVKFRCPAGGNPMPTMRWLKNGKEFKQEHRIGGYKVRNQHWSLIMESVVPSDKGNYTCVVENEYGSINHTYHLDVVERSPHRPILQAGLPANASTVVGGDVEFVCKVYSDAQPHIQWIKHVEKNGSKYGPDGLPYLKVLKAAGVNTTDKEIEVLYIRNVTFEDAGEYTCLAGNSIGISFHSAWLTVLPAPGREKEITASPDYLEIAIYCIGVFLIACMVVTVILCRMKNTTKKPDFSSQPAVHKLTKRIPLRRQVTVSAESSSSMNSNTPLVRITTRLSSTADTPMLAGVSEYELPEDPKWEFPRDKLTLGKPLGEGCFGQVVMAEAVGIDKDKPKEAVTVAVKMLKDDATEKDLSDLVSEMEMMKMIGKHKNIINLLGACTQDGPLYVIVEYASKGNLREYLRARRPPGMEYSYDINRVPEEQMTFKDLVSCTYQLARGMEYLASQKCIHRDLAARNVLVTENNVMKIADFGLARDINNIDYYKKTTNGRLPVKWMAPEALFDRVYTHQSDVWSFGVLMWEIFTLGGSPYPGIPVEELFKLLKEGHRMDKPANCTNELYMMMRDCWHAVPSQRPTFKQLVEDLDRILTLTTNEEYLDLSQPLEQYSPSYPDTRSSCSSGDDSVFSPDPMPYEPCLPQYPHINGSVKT
Chain of Serine/threonine-protein kinase Chk2 (Homo sapiens) (O96017 whole entry): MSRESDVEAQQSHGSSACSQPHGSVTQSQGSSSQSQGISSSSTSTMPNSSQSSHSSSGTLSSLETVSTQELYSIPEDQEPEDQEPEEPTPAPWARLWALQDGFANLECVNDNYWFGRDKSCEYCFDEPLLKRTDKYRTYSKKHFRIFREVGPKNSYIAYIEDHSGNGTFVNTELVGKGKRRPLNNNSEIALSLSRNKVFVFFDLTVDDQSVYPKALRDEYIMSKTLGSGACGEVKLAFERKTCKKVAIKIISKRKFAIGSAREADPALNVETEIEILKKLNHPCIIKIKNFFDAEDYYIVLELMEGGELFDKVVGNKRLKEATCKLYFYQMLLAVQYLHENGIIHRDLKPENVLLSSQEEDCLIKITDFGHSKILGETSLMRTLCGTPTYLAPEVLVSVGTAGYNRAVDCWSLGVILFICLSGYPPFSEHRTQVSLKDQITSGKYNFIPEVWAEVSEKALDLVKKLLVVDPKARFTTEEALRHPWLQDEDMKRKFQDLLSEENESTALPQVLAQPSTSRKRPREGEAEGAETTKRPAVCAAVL

`Nc1c(-c2nc3cc(N4CCN(C(=O)CCCCCNc5cccc6c5C(=O)N(C5CCC(=O)NC5=O)C6=O)CC4)ccc3[nH]2)c(=O)[nH]c2cccc(F)c12` (configuration not stated) gave an inhibition [1] of 54%, an inhibition [2] of 1% and an inhibition [3] of 15%. The Activity [4] was “Active”, the Activity [5] was “inactive” and the inhibition [6] was “Tde”. For the same compound, the inhibition [7] was 49%, the Activity (MOLM-13 [8]) was “Dose-Dependent Effect” and the inhibition [9] was 17%. The inhibition [10] was 95%, the Activity (MV4-11 [11]) was “Tde” and the inhibition [12] was 38%. For the same compound, the inhibition [13] was “Tde”, the Activity [14] was “Active” and the inhibition [15] was 12%. For the same compound, the inhibition [16] was 17%, the Activity [17] was “Active” and the inhibition [18] was 34%. For the same compound, the inhibition [19] was -8%, the inhibition [20] was 1% and the Activity [21] was “Dose-Dependent Effect”. For the same compound, the inhibition [22] was 4%, the inhibition [23] was 26% and the inhibition [24] was 98%. For the same compound, the inhibition [25] was 7%, the Activity [26] was “inactive” and the Activity (MV4-11 [27]) was “Active”. For the same compound, the inhibition [28] was 0%, the Activity (MOLM-13 [29]) was “Active” and the inhibition [30] was 83%. For the same compound, the inhibition [31] was 50%, the inhibition [32] was 4% and the Activity (MV4-11 [33]) was 5.19%. For the same compound, the Activity [34] was “Dose-Dependent Effect”, the inhibition [35] was 0% and the inhibition [36] was “Active”. It also gave an inhibition [37] of 93%.
